Data reported in ChEMBL document CHEMBL4610019, “Novel hybrid molecules of 3,5-bis(benzylidene)-4-piperidones and dichloroacetic acid which demonstrate potent tumour-selective cytotoxicity” (Bioorg Med Chem Lett, 2020).
Calls of active or inactive are those of the source. The rule behind the calls is not given here.

Legend:
[1] = test system: HCT-116; assay: Induction of mitochondrial membrane potential loss in human HCT116 cells at IC50; format: functional, cell-based
[2] = test system: CCD-841CoN; assay: Cytotoxicity against human CRL1790 cells assessed as inhibition of cell growth; format: cell-based
[3] = test system: HCT-116; assay: Induction of ROS generation in human HCT116 cells assessed as increase in ROS level at 2 times IC50; format: functional, cell-based
[4] = test system: HCT-116; assay: Induction of ROS generation in human HCT116 cells assessed as increase in ROS level at IC50; format: functional, cell-based
[5] = test system: HCT-116; assay: Cytotoxicity against human HCT116 cells assessed as inhibition of cell growth; format: functional, cell-based
[6] = Selectivity index, ratio of IC50 for human CRL1790 cells assessed as inhibition of cell growth to IC50 for human HCT116 cells assessed as inhibition of cell growth; format: toxicity; conditions: CRL1790 cells versus HCT116 cells, read-out: Ratio IC50
[7] = test system: HCT-116; assay: Induction of mitochondrial membrane potential loss in human HCT116 cells at 2 times IC50; format: functional, cell-based
[8] = test system: HCT-116; assay: Cell cycle arrest in human HCT116 cells assessed as accumulation at S phase at 0.28 uM (reference value: 18.4 %); format: functional
[9] = test system: HCT-116; assay: Cell cycle arrest in human HCT116 cells assessed as accumulation at G2/M phase at 0.28 uM (reference value: 29.4 %); format: functional
[10] = test system: HCT-116; assay: Induction of apoptosis in human HCT116 cells assessed as apoptotic cells at 0.28 uM (reference value: 2.4 %); format: functional
[11] = test system: HCT-116; assay: Cell cycle arrest in human HCT116 cells assessed as accumulation at G0/G1 phase at 10.96 uM (reference value: 0.28 %); format: functional
[12] = test system: HCT-116; assay: Cell cycle arrest in human HCT116 cells assessed as accumulation of diploid cells at 0.28 uM (reference value: 2.5 %); format: functional
[13] = test system: HCT-116; assay: Induction of apoptosis in human HCT116 cells assessed as apoptotic cells at 0.03 uM (reference value: 2.4 %); format: functional
[14] = test system: HCT-116; assay: Potency index, ratio of 5-fluorouracil IC50 to test compound IC50 for human HCT116 cells assessed as inhibition of cell growth; format: functional
[15] = test system: HCT-116; assay: Cell cycle arrest in human HCT116 cells assessed as accumulation at S phase at 0.03 uM (reference value: 18.4 %); format: functional
[16] = test system: HCT-116; assay: Cell cycle arrest in human HCT116 cells assessed as accumulation at G2/M phase at 0.03 uM (reference value: 29.4 %); format: functional
[17] = test system: HCT-116; assay: Cell cycle arrest in human HCT116 cells assessed as accumulation at G0/G1 phase at 0.03 uM (reference value: 46.8 %); format: functional
[18] = test system: HCT-116; assay: Cell cycle arrest in human HCT116 cells assessed as accumulation of diploid cells at 0.03 uM (reference value: 2.5 %); format: functional
[19] = test system: HCT-116; assay: Cell cycle arrest in human HCT116 cells assessed as accumulation at G0/G1 phase at 0.23 uM (reference value: 46.8 %); format: functional
[20] = Stability of compound in mixture of DMSO and phosphate buffer at 37 degree C incubated for 48 hrs by H-NMR spectroscopy; format: physicochemical
[21] = test system: HCT-116; assay: Cell cycle arrest in human HCT116 cells assessed as accumulation at G2/M phase at 0.23 uM (reference value: 29.4 %); format: functional
[22] = test system: HCT-116; assay: Induction of apoptosis in human HCT116 cells assessed as apoptotic cells at 0.23 uM (reference value: 2.4 %); format: functional
[23] = test system: HCT-116; assay: Cell cycle arrest in human HCT116 cells assessed as accumulation at S phase at 0.23 uM (reference value: 18.4 %); format: functional
[24] = test system: HCT-116; assay: Cell cycle arrest in human HCT116 cells assessed as accumulation of diploid cells at 0.23 uM (reference value: 2.5 %); format: functional
[25] = test system: HCT-116; assay: Induction of apoptosis in human HCT116 cells assessed as apoptotic cells at 10.96 uM (reference value: 2.4 %); format: functional
[26] = test system: HCT-116; assay: Cell cycle arrest in human HCT116 cells assessed as accumulation at G0/G1 phase at 10.96 uM (reference value: 46.8 %); format: functional
[27] = test system: HCT-116; assay: Cell cycle arrest in human HCT116 cells assessed as accumulation at S phase at 10.96 uM (reference value: 18.4 %); format: functional
[28] = test system: HCT-116; assay: Cell cycle arrest in human HCT116 cells assessed as accumulation of diploid cells at 10.96 uM (reference value: 2.5 %); format: functional
[29] = test system: HCT-116; assay: Cell cycle arrest in human HCT116 cells assessed as accumulation at G2/M phase at 10.96 uM (reference value: 29.4 %); format: functional

| Compound | IC50 [2] [µM] | IC50 [5] [µM] | selectivity ratio [6] | also measured |
| --- | --- | --- | --- | --- |
| O=c1[nH]cc(F)c(=O)[nH]1 [FLUOROURACIL] | 18.7 | 4.02 | 4.65 | Activity [1]: Active; Activity [3]: Active; Activity [4]: Active; Activity [7]: Active |
| COc1ccc(/C=C2\CN(C(=O)C(Cl)Cl)C/C(=C\c3ccc(OC)c(OC)c3)C2=O)cc1OC | 10.6 | 0.11 | 96.4 |  |
| O=C([O-])C(Cl)Cl.[Na+] [SODIUM DICHLOROACETATE] | 12.5 | 14.8 | 0.85 |  |
| CC(=O)N1C/C(=C\c2ccccc2)C(=O)/C(=C/c2ccccc2)C1 | 20.8 | 0.28 | 74.3 | Activity [1]: Active; Activity [8]: 18.3%; Activity [3]: Active; Activity [4]: Active; Activity [9]: 30%; Activity [10]: 3.5%; Activity [11]: 45.5%; Activity [12]: 2.4%; Activity [7]: Active |
| O=C1/C(=C/c2ccccc2)CNC/C1=C\c1ccccc1 | 9.45 | 3.5 | 2.7 |  |
| O=C1/C(=C/c2ccc(F)c(F)c2)CN(C(=O)C(Cl)Cl)C/C1=C\c1ccc(F)c(F)c1 | 11.1 | 0.06 | 185 |  |
| O=C1/C(=C/c2ccc([N+](=O)[O-])cc2)CN(C(=O)C(Cl)Cl)C/C1=C\c1ccc([N+](=O)[O-])cc1 | 11.1 | 0.03 | 370 | Activity [1]: Active; Activity [13]: 3.6%; Ratio IC50 [14]: >100; Activity [15]: 21.4%; Activity [3]: Active; Activity [4]: Active; Activity [16]: 27.8%; Activity [17]: 44.4%; Activity [18]: 2.2%; Activity [7]: Active |
| Cc1ccc(/C=C2\CN(C(=O)C(Cl)Cl)C/C(=C\c3ccc(C)cc3)C2=O)cc1 | 16.2 | 0.03 | 540 | Ratio IC50 [14]: >100 |
| COc1cc(/C=C2\CN(C(=O)C(Cl)Cl)C/C(=C\c3cc(OC)c(OC)c(OC)c3)C2=O)cc(OC)c1OC | 15.1 | 0.04 | 378 | Ratio IC50 [14]: >100 |
| COc1ccc(/C=C2\CN(C(=O)C(Cl)Cl)C/C(=C\c3ccc(OC)cc3)C2=O)cc1 | 13.2 | 0.27 | 48.9 |  |
| O=C1/C(=C/c2ccc(Cl)c(Cl)c2)CN(C(=O)C(Cl)Cl)C/C1=C\c1ccc(Cl)c(Cl)c1 | 12.2 | 0.04 | 305 | Ratio IC50 [14]: >100 |
| O=C1/C(=C/c2ccc(Cl)cc2)CN(C(=O)C(Cl)Cl)C/C1=C\c1ccc(Cl)cc1 | 14.9 | 0.13 | 115 |  |
| CC(C)(C)C(=O)N1C/C(=C\c2ccc(OC(=O)C(Cl)Cl)cc2)C(=O)/C(=C/c2ccc(OC(=O)C(Cl)Cl)cc2)C1 | 16.4 | 0.23 | 71.3 |  |
| O=C1/C(=C/c2ccccc2)CN(C(=O)C(Cl)Cl)C/C1=C\c1ccccc1 | 12.5 | 0.23 | 54.4 | Activity [1]: Active; Activity [19]: 44.7%; Activity [3]: Active; Stability [20]: Stable; Activity [4]: Active; Activity [21]: 29.6%; Activity [22]: 3.6%; Activity [23]: 19.9%; Activity [24]: 1.8%; Activity [7]: Active |
| O=C1/C(=C/c2cccc(F)c2)CN(C(=O)C(Cl)Cl)C/C1=C\c1cccc(F)c1 | 14.8 | 0.11 | 135 |  |
| O=C1/C(=C/c2ccc(O)cc2)CN(C(=O)C(Cl)Cl)C/C1=C\c1ccc(O)cc1 | 13.8 | 3.85 | 3.58 |  |
| O=C1/C(=C/c2ccc3c(c2)OCO3)CN(C(=O)C(Cl)Cl)C/C1=C\c1ccc2c(c1)OCO2 | 21.1 | 0.32 | 65.9 |  |
| CN(C)c1ccc(/C=C2\CN(C(=O)C(Cl)Cl)C/C(=C\c3ccc(N(C)C)cc3)C2=O)cc1 | 9.12 | 13.3 | 0.69 | Activity [1]: inactive; Activity [25]: 4.6%; Activity [3]: Active; Activity [4]: Active; Activity [26]: 42.9%; Activity [27]: 20.8%; Activity [28]: 1.4%; Activity [29]: 29.9%; Activity [7]: inactive |
| O=C1/C(=C/c2ccccc2F)CN(C(=O)C(Cl)Cl)C/C1=C\c1ccccc1F | 11 | 0.21 | 52.4 |  |
| O=C1/C(=C/c2ccc(F)cc2)CN(C(=O)C(Cl)Cl)C/C1=C\c1ccc(F)cc1 | 14.6 | 0.05 | 292 |  |
